Measurements as given in paper PMC9658017, “Hydroxygenkwanin Improves the Efficacy of Cytotoxic Drugs in ABCG2-Overexpressing Multidrug-Resistant Cancer Cells” (International Journal of Molecular Sciences, 2022).

Target: T1, ABCG2 (Homo sapiens, UniProt Q9UNQ0)
T1 sequence (Q9UNQ0 1-655): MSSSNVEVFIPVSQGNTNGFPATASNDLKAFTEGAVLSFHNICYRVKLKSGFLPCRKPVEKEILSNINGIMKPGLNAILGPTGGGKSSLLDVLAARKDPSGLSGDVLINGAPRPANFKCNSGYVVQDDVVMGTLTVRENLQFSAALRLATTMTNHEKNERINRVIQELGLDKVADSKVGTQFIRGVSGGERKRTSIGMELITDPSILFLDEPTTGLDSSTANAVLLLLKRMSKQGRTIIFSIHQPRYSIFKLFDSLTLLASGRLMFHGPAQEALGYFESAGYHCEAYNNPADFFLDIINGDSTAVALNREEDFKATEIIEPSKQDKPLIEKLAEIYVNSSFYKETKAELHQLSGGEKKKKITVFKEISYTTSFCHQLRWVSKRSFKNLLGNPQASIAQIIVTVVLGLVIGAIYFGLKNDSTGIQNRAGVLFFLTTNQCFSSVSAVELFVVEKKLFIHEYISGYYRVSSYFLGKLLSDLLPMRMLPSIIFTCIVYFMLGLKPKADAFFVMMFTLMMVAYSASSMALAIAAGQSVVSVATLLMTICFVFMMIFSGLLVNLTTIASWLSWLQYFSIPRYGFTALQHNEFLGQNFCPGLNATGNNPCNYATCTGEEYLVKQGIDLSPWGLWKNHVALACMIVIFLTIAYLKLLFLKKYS
Assay: biochemical

EC50: ~19 nM
SMILES: COc1cc(O)c2c(=O)cc(-c3ccc(O)c(O)c3)oc2c1 [HGK, Hydroxygenkwanin]
